Assay results reported in PubChem BioAssay AID1963845 (Molecular Pharmacology Branch, DTP, NCI, 2024).
“And” between values parts separate entries of the source, which are not always exact repeats. Equal entries are not always repeated.

Test system: 429239-143-T-J1-PDC complex spheroid viability
Assay: Anticancer human tumor 429239-143-T-J1-PDC patient-derived small cell lung carcinoma cell line growth inhibition [POLQ]
Conditions: for viability, T/C: stronger effect = lower value
Method: Multicellular complex tumor spheroid response to Polymerase (POL) inhibitors (novobiocin, ART-558, RP6685) in combination with a variety of drugs and investigational agents in selected tumor cell lines
The POL inhibitors (novobiocin, ART-558, and RP6685) were evaluated both individually and in combination with standard of care and investigational anticancer small molecules within a complex spheroid model of solid tumors. . Complex spheroids include a stromal component modeled by human endothelial cells (HUVEC) and fibroblasts modeled by human mesenchymal stem cells (MSCs). The concentration ranges selected for each drug and investigational agent were based upon clinically achievable concentrations if the clinical Cmax of the agent was known.
Compounds. The drugs and investigational agents: novobiocin (NSC847541), ART-558 (NSC835418), RP-6685 (NSC848927), peposertib (NSC802822), ceralasertib (NSC780249), elimusertib (NSC800525), camonsertib (NSC841442), AZD-1390 (NSC803789), olaparib (NSC753686), talazoparib (NSC767125), rucaparib (NSC756644), sotorasib (NSC818433), MRTX-1133 (NSC836407), SN-38 (NSC673596), topotecan (NSC609699), epotoside (NSC141540), doxorubicin (NSC123127), gemcitabine (NSC613327), 5-fluorouracil (NSC19893), paclitaxel (NSC125973), vemurafenib (NSC761431), MSA-2 (NSC828583), SN-011 (NSC837082), adavosertib (NSC754352), prexasertib (NSC758257), carboplatin (NSC241240) and oxaliplatin (NSC266046), were obtained from the National Cancer Institute (NCI) Developmental Therapeutics Program Chemical Repository (21). The FDA-approved anticancer drug set is available from the Developmental Therapeutics Program at https://dtp.cancer.gov/organization/dscb/obtaining/. […] The stock solutions were prepared in dimethyl sulfoxide (DMSO, Sigma-Aldrich, St. Louis, MO, cat. D2650), except for the platinum compounds which were prepared in saline (Quality Biological, Gaithersburg, MD, cat. 114-055-101), at 800-fold the tested concentration and stored at -70 degrees C prior to their use. All drugs and investigational agents were tested over a range starting from a high concentration at or near the clinical Cmax and decreasing in half-log increments. If the clinical Cmax for an agent had not been determined, the highest concentration tested was 10 microM, except for SN-38, which was tested at a high concentration of 1 microM.
Cell Culture. All cells were maintained in an incubator at 37 degrees C and 5% CO2 with 95% humidity. The PDC lines were cultured according to standard operating procedures established by the NCI PDMR (https://pdmr.cancer.gov). Table 3 of the manuscript, lists the cell lines along with the number of the three cell types plated to form the mct-spheroids and media for tumor cell growth. After thawing, all PDC lines, except 997537-175-T-J1-PDC and 415267-285-R-J2-PDC, were cultured in Matrigel-coated flasks prepared with a working solution of 1X Ham's F-12 nutrient mix, without supplementation (Thermo Fisher Scientific, cat. 11765054), 100 U/mL penicillin-streptomycin (Thermo Fisher Scientific, cat. 15140122), and 2.5% Matrigel (Corning Inc., Corning, NY, cat. 354248) for the first three passages. The two PDC lines 997537-175-T-J1-PDC and 415267-285-R-J2-PDC were cultured on uncoated flasks. The 857933-349-R-J2-PDC line was cultured in 6C/Colon 1B media containing advanced DMEM/F-12 (Thermo Fisher Scientific, cat. 12634028), 10 mM HEPES (Thermo Fisher Scientific, cat. 15630080), 1X GlutaMAX supplement (Thermo Fisher Scientific, cat. 35050061), 0.1 mg/mL primocin (InvivoGen, San Diego, CA, cat. ant-pm-2), 10% defined fetal bovine serum, heat inactivated (HyClone Laboratories Inc., Logan, UT, cat. SH30070.03HI), 50% L-WRN conditioned media (ATCC, cat. CRL-3276), 1.25 mM N-Acetyl-L-cysteine (Sigma-Aldrich, cat. A9165), 10 mM nicotinamide (Sigma-Aldrich, cat. N0636), 1X B-27 supplement (Thermo Fisher Scientific, cat. 17504044), 1X N-2 supplement (Thermo Fisher Scientific, cat. […]
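Note: luminescence signal used as surrogate measure of viable cells; spheroids exposed to compounds for seven days before readout.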
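Throughout, for viability, T/C: 100% = DMSO vehicle control viability as luminescence relative to vehicle.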

SMILES	viability, T/C (compound 0.0316 µM)	viability, T/C (compound 0.1 µM)	viability, T/C (compound 0.316 µM)	viability, T/C (compound 1 µM)	viability, T/C (compound 3.16 µM)	viability, T/C (compound 10 µM)	IC50 (curve of compound)	IC50 (compound alone, run of 01/08/2024)	viability, T/C (compound 0.00316 µM)	viability, T/C (compound 0.01 µM)
CNCc1ccc(-c2[nH]c3cc(F)cc4c3c2CCNC4=O)cc1	87.2% and 101% and 90.9%	82.5% and 98.5% and 90.4%	76.4% and 92.6% and 91.3%	75.4% and 90% and 68.9%	49.1% and 76.2% and 44.9%	25% and 30% and 21.1%	3.17 µM and 6 µM and 2.43 µM			
COC1C(OC(N)=O)C(O)C(Oc2ccc3c(O)c(NC(=O)c4ccc(O)c(CC=C(C)C)c4)c(=O)oc3c2C)OC1(C)C (stereo unspecified)	99.8% [middle of 13 runs]	101% [middle of 13 runs]	100% [middle of 13 runs]		99.4% [middle of 13 runs]			> 10 µM		
COc1cc(C2c3cc4c(cc3C(OC3OC5COC(C)OC5C(O)C3O)C3COC(=O)C23)OCO4)cc(OC)c1O (stereo unspecified)	99.3% and 97.8% and 98.3%	83.6% and 97.1% and 85.7%	67.2% and 76.3% and 51.2%	21% and 16.1% and 18%	18.4% and 7.9% and 16%	16.8% and 7.28% and 16.6%	0.483 µM and 0.523 µM and 0.313 µM			
COc1cc2cc(C(=O)CCC(=O)O)sc2cc1OC	92.3% and 91.8% and 112%	105% and 102% and 92.5%	94.3% and 97.6% and 97.8%	108% and 109% and 97.7%	108% and 107% and 97.8%	97.3% and 104% and 87.3%	> 10 µM			
COc1ccc([C@@H](O)c2cc(-c3ncnc4cc(N5CCOCC5)ccc34)c(F)cc2Cl)nn1	94.3% and 105% and 106%	96% and 95.6% and 99.2%	93.8% and 92.8% and 87.8%	87.6% and 96.2% and 92.5%	55.4% and 93.5% and 53.1%		3.61 µM and 9.97 µM and 3.52 µM			
COc1cccc(OCCCN)c1-c1cc(Nc2cnc(C#N)cn2)n[nH]1	82.9% and 83.9% and 89.2%	39.7% and 73.7% and 77.4%	31% and 56.7% and 51.6%	23% and 27% and 41.3%			0.0762 µM and 0.39 µM and 0.384 µM		92% and 99.1% and 90.2%	79.7% and 103% and 100%
COc1cccc2c1C(=O)c1c(O)c3c(c(O)c1C2=O)CC(O)(C(=O)CO)CC3OC1CC(N)C(O)C(C)O1 (stereo unspecified)	64.3% and 87.3% and 71.1%	12.8% and 42.3% and 14.2%	11.6% and 7.66% and 13.1%	0.3% and 0.77% and 0.76%	0.21% and 0.16% and 0.18%	0.24% and 0.16% and 0.14%	0.0441 µM and 0.0821 µM and 0.0497 µM			
